ChEMBL document CHEMBL5465560, “Selectivity Literature for EUbOPEN Chemogenomic Library” (2024)
Blank lines part the entries; values can stand above or below the molecule they belong to.

How the values were obtained:
[1] = target: Tyrosine-protein kinase CSK (Homo sapiens) (UniProt P41240); experiment: Selectivity interaction (Ambit KINOMEscan and KiNATiv profiling in Jurkat cells) EUB0000090b CSK; format: cell-based; conditions: at 1 µM
[2] = target: Dual specificity mitogen-activated protein kinase kinase 2 (Homo sapiens) (UniProt P36507); experiment: Selectivity interaction (Ambit KINOMEscan and KiNATiv profiling in Jurkat cells) EUB0000090b MAP2K2; format: cell-based; conditions: at 1 µM
Dual specificity mitogen-activated protein kinase kinase 2 (Homo sapiens), sequence (P36507 whole entry): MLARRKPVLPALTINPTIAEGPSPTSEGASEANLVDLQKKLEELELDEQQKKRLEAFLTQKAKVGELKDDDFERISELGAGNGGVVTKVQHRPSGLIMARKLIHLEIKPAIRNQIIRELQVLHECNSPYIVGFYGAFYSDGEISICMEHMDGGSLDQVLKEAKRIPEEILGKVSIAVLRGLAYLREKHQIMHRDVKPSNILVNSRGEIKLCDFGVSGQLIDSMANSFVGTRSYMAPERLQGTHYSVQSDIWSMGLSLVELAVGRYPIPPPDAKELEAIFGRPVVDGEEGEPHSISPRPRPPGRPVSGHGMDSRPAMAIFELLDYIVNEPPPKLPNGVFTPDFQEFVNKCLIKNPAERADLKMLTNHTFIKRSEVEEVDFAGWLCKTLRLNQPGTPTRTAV

[3] = target: Serine/threonine-protein kinase 24 (Homo sapiens) (UniProt Q9Y6E0); experiment: Selectivity interaction (KinomeScan (DiscoverX)) EUB0000618a STK24; conditions: at 10 µM
Serine/threonine-protein kinase 24 (Homo sapiens), sequence (Q9Y6E0 whole entry, looked up): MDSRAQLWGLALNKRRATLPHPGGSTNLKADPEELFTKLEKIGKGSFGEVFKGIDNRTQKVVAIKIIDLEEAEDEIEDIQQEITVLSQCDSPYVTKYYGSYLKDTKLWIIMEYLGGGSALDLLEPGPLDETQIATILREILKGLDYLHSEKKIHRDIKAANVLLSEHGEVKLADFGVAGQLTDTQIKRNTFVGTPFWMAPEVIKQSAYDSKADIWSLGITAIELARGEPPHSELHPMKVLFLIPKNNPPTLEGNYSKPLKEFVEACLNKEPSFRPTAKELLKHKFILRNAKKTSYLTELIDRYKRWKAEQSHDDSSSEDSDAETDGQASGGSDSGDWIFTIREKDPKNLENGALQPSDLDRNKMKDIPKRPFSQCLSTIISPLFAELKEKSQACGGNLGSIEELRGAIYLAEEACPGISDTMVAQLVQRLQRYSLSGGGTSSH

[4] = target: Tyrosine-protein kinase JAK1 (Homo sapiens, UniProt P23458); experiment: Selectivity interaction (KinomeScan (DiscoverX)) EUB0000607a JAK1; conditions: at 10 µM
Tyrosine-protein kinase JAK1, sequence (P23458 whole entry): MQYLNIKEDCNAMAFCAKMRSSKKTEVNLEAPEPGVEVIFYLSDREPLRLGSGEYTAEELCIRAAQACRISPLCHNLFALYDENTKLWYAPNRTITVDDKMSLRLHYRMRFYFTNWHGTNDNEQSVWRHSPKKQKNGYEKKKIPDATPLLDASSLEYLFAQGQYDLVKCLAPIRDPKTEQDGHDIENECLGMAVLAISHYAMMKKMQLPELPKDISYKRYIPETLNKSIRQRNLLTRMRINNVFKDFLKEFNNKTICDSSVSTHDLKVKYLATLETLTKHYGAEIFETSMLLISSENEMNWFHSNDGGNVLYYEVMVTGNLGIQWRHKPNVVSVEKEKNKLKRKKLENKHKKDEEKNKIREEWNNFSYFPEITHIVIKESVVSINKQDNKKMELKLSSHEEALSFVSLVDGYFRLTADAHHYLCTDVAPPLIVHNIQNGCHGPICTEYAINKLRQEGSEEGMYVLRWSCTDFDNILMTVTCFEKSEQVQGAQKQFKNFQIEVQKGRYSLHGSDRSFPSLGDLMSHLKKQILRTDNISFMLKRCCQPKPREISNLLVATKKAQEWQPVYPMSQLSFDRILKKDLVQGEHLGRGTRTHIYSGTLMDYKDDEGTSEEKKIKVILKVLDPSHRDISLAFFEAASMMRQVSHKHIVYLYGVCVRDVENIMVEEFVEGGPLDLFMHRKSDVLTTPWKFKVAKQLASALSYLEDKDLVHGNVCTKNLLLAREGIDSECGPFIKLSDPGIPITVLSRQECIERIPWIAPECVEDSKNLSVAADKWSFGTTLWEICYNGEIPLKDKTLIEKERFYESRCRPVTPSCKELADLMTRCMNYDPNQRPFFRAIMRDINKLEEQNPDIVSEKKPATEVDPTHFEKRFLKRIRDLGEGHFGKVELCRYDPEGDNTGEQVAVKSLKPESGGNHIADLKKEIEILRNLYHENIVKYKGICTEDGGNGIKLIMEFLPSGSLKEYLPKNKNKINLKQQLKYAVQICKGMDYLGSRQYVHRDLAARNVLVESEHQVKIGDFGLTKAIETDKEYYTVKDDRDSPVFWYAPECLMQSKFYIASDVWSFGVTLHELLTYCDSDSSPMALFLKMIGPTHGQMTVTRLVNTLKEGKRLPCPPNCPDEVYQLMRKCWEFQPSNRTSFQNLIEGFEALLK

[5] = target: Calcium/calmodulin-dependent protein kinase type II subunit alpha (Homo sapiens, UniProt Q9UQM7); experiment: Selectivity interaction (Upstate Kinase Profiler service (Millipore, enzymatic assay)) EUB0000056c CAMK2A
Calcium/calmodulin-dependent protein kinase type II subunit alpha, sequence (Q9UQM7 whole entry): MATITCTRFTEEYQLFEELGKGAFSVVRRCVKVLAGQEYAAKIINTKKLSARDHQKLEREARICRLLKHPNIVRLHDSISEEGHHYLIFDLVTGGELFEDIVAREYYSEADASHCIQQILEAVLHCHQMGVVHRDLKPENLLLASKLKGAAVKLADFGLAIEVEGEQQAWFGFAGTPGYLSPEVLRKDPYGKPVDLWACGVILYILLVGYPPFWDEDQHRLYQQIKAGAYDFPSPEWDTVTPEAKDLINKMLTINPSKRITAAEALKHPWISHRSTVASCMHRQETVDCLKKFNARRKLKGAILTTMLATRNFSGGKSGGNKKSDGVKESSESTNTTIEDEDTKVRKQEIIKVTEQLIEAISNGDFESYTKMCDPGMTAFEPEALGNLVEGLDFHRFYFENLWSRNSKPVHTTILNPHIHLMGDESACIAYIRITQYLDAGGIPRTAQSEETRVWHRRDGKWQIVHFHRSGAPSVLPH

[6] = target: Glycogen synthase kinase-3 alpha (Homo sapiens, UniProt P49840); experiment: Selectivity interaction (Kinase panel (Invitrogen)) EUB0000639a GSK3A; conditions: at 200 nM
Glycogen synthase kinase-3 alpha, sequence (P49840 2-483 limits assumed): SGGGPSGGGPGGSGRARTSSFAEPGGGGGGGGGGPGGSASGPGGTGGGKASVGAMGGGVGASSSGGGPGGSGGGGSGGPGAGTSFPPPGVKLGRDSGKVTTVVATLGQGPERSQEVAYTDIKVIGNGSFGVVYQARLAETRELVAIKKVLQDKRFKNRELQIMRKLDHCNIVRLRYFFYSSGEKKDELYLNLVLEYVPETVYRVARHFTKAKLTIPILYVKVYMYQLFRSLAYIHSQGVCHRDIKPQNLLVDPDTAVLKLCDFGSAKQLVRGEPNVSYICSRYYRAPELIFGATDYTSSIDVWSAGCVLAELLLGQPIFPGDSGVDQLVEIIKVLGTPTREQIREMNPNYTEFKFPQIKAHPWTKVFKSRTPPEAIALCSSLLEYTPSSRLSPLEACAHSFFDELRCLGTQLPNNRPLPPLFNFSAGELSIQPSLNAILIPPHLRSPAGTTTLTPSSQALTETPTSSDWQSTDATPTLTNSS

[7] = target: MAP kinase-activated protein kinase 3 (Homo sapiens) (UniProt Q16644); experiment: Selectivity interaction (ProQinase) EUB0000171b MAPKAPK3
MAP kinase-activated protein kinase 3 (Homo sapiens), sequence (Q16644 whole entry, looked up): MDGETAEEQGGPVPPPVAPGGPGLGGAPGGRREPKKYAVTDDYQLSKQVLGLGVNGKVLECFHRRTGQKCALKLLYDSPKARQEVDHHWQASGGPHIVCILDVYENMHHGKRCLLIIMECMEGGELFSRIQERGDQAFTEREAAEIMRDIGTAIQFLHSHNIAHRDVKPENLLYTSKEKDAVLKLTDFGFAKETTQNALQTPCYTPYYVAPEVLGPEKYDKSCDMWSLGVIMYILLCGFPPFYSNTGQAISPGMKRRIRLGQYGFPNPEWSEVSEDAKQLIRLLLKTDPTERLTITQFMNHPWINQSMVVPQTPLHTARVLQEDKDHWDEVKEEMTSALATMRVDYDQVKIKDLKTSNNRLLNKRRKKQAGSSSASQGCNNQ

[8] = target: Ephrin type-A receptor 2 (Homo sapiens) (UniProt P29317); experiment: Selectivity interaction (KinomeScan (DiscoverX)) EUB0001049a EPHA2; conditions: at 1 µM
Ephrin type-A receptor 2 (Homo sapiens), sequence (P29317 whole entry): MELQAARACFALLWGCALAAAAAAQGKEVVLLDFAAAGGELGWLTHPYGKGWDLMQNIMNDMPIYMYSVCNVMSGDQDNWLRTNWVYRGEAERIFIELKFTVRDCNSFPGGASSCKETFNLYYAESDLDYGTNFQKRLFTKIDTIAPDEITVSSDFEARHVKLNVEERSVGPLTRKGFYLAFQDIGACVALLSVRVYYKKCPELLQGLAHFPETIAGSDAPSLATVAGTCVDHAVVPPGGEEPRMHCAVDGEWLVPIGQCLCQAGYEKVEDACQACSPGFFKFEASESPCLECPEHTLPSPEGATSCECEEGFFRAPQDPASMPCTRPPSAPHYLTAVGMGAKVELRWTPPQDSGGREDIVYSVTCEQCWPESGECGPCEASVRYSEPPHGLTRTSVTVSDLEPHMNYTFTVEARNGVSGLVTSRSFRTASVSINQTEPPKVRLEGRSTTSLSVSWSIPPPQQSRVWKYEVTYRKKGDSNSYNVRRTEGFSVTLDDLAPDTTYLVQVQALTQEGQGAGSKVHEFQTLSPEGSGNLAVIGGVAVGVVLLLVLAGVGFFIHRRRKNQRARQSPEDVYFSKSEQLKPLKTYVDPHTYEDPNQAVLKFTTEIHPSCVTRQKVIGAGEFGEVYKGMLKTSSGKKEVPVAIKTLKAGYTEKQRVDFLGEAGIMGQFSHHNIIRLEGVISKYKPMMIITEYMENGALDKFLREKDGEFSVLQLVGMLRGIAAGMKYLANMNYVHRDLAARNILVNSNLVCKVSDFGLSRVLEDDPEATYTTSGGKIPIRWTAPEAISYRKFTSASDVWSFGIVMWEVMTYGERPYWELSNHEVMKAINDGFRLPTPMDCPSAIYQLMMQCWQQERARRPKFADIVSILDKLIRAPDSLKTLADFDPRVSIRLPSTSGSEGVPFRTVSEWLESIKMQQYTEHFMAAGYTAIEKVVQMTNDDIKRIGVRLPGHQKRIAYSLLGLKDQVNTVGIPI

[9] = target: T1, Atypical kinase COQ8B, mitochondrial (Homo sapiens) (UniProt Q96D53); experiment: Selectivity interaction (KinomeScan (DiscoverX)) EUB0000666a ADCK4; conditions: at 10 µM
T1 sequence (whole entry): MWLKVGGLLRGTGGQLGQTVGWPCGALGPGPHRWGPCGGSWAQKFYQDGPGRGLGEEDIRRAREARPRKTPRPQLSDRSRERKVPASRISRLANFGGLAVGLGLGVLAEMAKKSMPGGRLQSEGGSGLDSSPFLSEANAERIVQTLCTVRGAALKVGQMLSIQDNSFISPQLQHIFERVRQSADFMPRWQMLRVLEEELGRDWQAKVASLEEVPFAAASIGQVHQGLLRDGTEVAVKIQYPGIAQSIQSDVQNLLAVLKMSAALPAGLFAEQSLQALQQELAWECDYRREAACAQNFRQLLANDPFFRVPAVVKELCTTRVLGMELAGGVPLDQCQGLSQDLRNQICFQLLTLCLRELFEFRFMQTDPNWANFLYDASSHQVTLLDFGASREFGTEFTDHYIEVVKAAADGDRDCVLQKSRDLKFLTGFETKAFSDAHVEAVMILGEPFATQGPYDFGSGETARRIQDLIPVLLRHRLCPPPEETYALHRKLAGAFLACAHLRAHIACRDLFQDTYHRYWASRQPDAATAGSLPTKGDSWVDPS

[10] = target: T2, Serine/threonine-protein kinase Nek3 (Homo sapiens) (UniProt P51956); experiment: Selectivity interaction (KinomeScan (DiscoverX)) EUB0000666a NEK3; conditions: at 10 µM
T2 sequence (whole entry): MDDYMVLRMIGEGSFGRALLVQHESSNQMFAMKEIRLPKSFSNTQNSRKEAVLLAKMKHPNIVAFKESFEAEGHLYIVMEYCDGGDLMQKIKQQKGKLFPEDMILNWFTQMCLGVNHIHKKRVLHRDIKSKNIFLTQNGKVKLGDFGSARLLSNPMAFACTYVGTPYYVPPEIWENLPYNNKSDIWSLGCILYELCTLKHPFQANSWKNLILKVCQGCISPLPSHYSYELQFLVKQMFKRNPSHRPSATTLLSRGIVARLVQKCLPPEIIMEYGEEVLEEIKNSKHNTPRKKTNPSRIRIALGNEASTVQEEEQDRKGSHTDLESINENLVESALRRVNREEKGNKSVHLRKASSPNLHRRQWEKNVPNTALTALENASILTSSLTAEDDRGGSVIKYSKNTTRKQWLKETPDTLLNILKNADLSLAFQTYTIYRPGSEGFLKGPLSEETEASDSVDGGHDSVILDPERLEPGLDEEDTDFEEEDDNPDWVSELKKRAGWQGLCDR

[11] = target: T3, Serine/threonine-protein kinase Nek1 (Homo sapiens) (UniProt Q96PY6); experiment: Selectivity interaction (Kinase panel (Z-LYTE Assay)) EUB0001632a NEK1; conditions: at 10 µM
T3 sequence (whole entry): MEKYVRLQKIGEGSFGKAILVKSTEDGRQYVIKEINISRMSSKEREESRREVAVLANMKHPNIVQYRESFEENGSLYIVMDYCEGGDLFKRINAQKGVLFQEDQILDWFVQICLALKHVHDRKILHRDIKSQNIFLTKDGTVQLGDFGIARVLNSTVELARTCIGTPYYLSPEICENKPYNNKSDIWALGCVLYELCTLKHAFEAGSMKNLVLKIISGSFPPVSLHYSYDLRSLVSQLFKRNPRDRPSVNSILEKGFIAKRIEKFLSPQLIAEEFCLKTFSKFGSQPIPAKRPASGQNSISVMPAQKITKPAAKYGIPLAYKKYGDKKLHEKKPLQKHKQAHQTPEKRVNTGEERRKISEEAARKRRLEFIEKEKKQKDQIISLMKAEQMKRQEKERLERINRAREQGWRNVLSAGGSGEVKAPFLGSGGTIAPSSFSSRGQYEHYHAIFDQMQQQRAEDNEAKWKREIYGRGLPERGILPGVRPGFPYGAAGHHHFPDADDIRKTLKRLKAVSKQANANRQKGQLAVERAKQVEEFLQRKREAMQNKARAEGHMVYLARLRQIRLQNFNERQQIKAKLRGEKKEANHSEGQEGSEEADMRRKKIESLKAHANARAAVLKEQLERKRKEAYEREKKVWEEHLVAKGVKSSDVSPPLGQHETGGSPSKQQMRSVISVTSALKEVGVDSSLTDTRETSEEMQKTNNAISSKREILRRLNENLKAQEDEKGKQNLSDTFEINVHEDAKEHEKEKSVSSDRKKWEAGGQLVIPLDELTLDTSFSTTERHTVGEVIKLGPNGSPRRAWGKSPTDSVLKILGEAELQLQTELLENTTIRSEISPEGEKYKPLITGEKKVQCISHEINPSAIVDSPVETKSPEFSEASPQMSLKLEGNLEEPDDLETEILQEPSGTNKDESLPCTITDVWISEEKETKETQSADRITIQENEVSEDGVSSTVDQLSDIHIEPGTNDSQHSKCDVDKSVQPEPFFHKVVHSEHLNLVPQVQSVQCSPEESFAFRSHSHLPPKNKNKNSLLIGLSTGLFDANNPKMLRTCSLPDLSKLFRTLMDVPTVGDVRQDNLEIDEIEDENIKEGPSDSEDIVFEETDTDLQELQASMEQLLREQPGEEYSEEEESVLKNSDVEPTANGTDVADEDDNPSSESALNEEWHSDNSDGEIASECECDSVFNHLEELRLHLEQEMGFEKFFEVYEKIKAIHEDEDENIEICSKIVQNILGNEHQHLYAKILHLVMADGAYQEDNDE

Tyrosine-protein kinase CSK (Homo sapiens), sequence (P41240 2-450 limits assumed): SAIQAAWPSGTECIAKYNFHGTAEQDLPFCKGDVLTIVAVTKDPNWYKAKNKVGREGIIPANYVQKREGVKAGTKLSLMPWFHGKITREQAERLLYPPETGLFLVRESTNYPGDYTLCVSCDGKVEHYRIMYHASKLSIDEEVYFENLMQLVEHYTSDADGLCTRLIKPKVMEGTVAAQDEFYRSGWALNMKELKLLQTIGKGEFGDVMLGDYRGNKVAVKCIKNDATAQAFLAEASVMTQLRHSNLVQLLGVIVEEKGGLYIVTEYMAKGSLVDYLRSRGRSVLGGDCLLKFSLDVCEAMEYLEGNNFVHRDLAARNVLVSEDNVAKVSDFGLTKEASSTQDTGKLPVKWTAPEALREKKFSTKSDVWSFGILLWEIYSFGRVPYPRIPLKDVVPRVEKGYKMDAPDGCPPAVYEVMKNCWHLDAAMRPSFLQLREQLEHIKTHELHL

SMILES: CN(C)C/C=C/C(=O)Nc1ccc(C(=O)N2CCCC(Nc3ncc(Cl)c(-c4c[nH]c5ccccc45)n3)C2)cc1 (configuration not stated)
- % of control [1]: 95%
- % of control [2]: 93%

SMILES: O[C@H]1CC[C@H](Nc2ncc3nc(Nc4c(F)cc(F)cc4F)n([C@H]4CCOC4)c3n2)CC1
- % of control [3]: 88%

SMILES: CNC(=O)Nc1ccc(-c2nc(N3CC4CCC(C3)O4)c3cnn(C4CCC5(CC4)OCCO5)c3n2)cc1
- % of control [4]: 83%

- IC50 [5]: 0.07 µM
SMILES: Cc1ccc(-c2ccc3c(ccc4sc5c(c43)NC[C@@H](C)NC5=O)n2)cn1

- % of inhibition [6]: 7.43%
SMILES: CC[C@@H]1[C@H](F)C(=O)N[C@@H]1COc1nccc2cc(C(N)=O)c(OC)cc12 [ZIMLOVISERTIB]

- % of control ([7]; at 1 µM): 100%
- % of control ([7]; at 5 µM): 65%
SMILES: C=CC(=O)Nc1cccc(C(=O)Nc2ccc(Nc3cc(-c4[nH]c(SC)nc4C)ccn3)cc2)c1

SMILES: COc1cc(Nc2nc(C)cc(-c3cnn4nc(OC)ccc34)n2)cc(C(F)(F)F)c1
- % of control [8]: 87%

SMILES: O=C(NOC[C@H](O)CO)c1ccc(F)c(F)c1Nc1ccc(I)cc1F
- % of control [9]: 100%
- % of control [10]: 100%

- % of control [11]: -1.93%
SMILES: Cn1cc(-n2cnc3c(NCc4nc5cc(Cl)c(Cl)cc5[nH]4)nc(N4CCOCC4)nc32)cn1
